pIC50: −log10 of the molar value.
How the values were obtained:
[1] = molecular target: Histamine H4 receptor (Homo sapiens) (UniProt Q9H3N8); conditions: Compound concentration 10.0 uM
[2] = molecular target: SRSF protein kinase 1 (Homo sapiens) (UniProt Q96SB4); test: SRPK1 DUNDEE kinase screen (BI); conditions: Compound concentration 10.0 uM
[3] = molecular target: Serine/threonine-protein kinase 17A (Homo sapiens) (UniProt Q9UEE5); test: STK17A Invitrogen Lab (UK) kinase screen (BI); conditions: Compound concentration 1.0 uM
[4] = molecular target: Tyrosine-protein kinase receptor UFO (Homo sapiens) (UniProt P30530)
[5] = molecular target: Serine/threonine-protein kinase Sgk2 (Homo sapiens) (UniProt Q9HBY8); conditions: Compound concentration 1.0 uM
[6] = molecular target: Phosphodiesterase 4 (Homo sapiens) (UniProt P27815+Q08499+Q07343+Q08493); test: PDE-IV/HU Eurofins SafetyScreen44 (BI); assay type: protein assay; conditions: Compound concentration 10.0 uM
[7] = molecular target: Inhibitor of nuclear factor kappa-B kinase subunit beta (Homo sapiens) (UniProt O14920)
[8] = molecular target: Serine/threonine-protein kinase PLK1 (Homo sapiens) (UniProt P53350); test: PLK1 DUNDEE kinase screen (BI); conditions: Compound concentration 10.0 uM
[9] = molecular target: Activated CDC42 kinase 1 (Homo sapiens) (UniProt Q07912); conditions: Compound concentration 1.0 uM
[10] = molecular target: Mitogen-activated protein kinase kinase kinase kinase 3 (Homo sapiens) (UniProt Q8IVH8); conditions: Compound concentration 1.0 uM
[11] = molecular target: RAC-alpha serine/threonine-protein kinase (Homo sapiens) (UniProt P31749)
[12] = molecular target: Phosphatidylinositol 3-kinase catalytic subunit type 3 (Homo sapiens) (UniProt Q8NEB9); conditions: Compound concentration 1.0 uM
[13] = molecular target: Protein-tyrosine kinase 6 (Homo sapiens) (UniProt Q13882); conditions: Compound concentration 1.0 uM
[14] = molecular target: Mitogen-activated protein kinase kinase kinase 2 (Homo sapiens) (UniProt Q9Y2U5); conditions: Compound concentration 1.0 uM
[15] = molecular target: CDK18/Cyclin Y (Homo sapiens) (UniProt Q07002+Q8ND76); conditions: Compound concentration 1.0 uM
[16] = molecular target: Ribosomal protein S6 kinase beta-1 (Homo sapiens) (UniProt P23443)
[17] = molecular target: Tyrosine-protein kinase ZAP-70 (Homo sapiens) (UniProt P43403); conditions: Compound concentration 1.0 uM
[18] = molecular target: Eukaryotic elongation factor 2 kinase (Homo sapiens) (UniProt O00418); conditions: Compound concentration 1.0 uM
[19] = molecular target: Leukotriene C4 synthase (Cavia porcellus) (UniProt A6XA80); conditions: Compound concentration 10.0 uM
[20] = molecular target: Cyclin-dependent kinase 7 (Homo sapiens) (UniProt P50613); conditions: Compound concentration 1.0 uM
[21] = molecular target: Eukaryotic elongation factor 2 kinase (Homo sapiens) (UniProt O00418); test: EF2K DUNDEE kinase screen (BI); conditions: filed as activator, Compound concentration 10.0 uM
[22] = molecular target: MAP kinase-interacting serine/threonine-protein kinase 1 (Homo sapiens) (UniProt Q9BUB5); test: MNK1 DUNDEE kinase screen (BI); conditions: Compound concentration 10.0 uM
[23] = molecular target: Mitogen-activated protein kinase 12 (Homo sapiens) (UniProt P53778); conditions: Compound concentration 1.0 uM
[24] = molecular target: CDK3/Cyclin E (Homo sapiens) (UniProt P24864+Q00526); test: CDK3/CYCLIN E1 Invitrogen Lab (UK) kinase screen (BI); assay type: protein-complex assay; conditions: Compound concentration 1.0 uM
[25] = molecular target: Serine/threonine-protein kinase pim-3 (Homo sapiens) (UniProt Q86V86); test: PIM3 Invitrogen Lab (UK) kinase screen (BI); conditions: Compound concentration 1.0 uM
[26] = molecular target: Serine/threonine-protein kinase PAK 5 (Homo sapiens) (UniProt Q9P286); conditions: Compound concentration 1.0 uM
[27] = molecular target: Serine/threonine-protein kinase 4 (Homo sapiens) (UniProt Q13043); test: STK4 Invitrogen Lab (UK) kinase screen (BI); conditions: Compound concentration 1.0 uM
[28] = molecular target: Phosphatidylinositol 3-kinase regulatory subunit beta/Phosphatidylinositol 4,5-bisphosphate 3-kinase catalytic subunit beta isoform (Homo sapiens) (UniProt P42338+O00459); test: PIK3CB/PIK3R2 Invitrogen Lab (UK) kinase screen (BI); assay type: protein-complex assay; conditions: Compound concentration 1.0 uM
[29] = molecular target: Serine/threonine-protein kinase 33 (Homo sapiens) (UniProt Q9BYT3); test: STK33 Invitrogen Lab (UK) kinase screen (BI); conditions: Compound concentration 1.0 uM
[30] = molecular target: 5-hydroxytryptamine receptor 2A (Homo sapiens) (UniProt P28223); conditions: Compound concentration 10.0 uM
[31] = molecular target: Tyrosine-protein kinase HCK (Homo sapiens) (UniProt P08631); conditions: Compound concentration 1.0 uM
[32] = molecular target: Ribosomal protein S6 kinase alpha-5 (Homo sapiens) (UniProt O75582); test: RPS6KA5 Invitrogen Lab (UK) kinase screen (BI); conditions: Compound concentration 1.0 uM
[33] = molecular target: G protein-coupled receptor kinase 6 (Homo sapiens) (UniProt P43250); conditions: Compound concentration 1.0 uM
[34] = molecular target: Serine/threonine-protein kinase Sgk1 (Homo sapiens) (UniProt O00141); conditions: Compound concentration 10.0 uM
[35] = molecular target: Serine/threonine-protein kinase 3 (Homo sapiens) (UniProt Q13188); test: STK3 Invitrogen Lab (UK) kinase screen (BI); conditions: Compound concentration 1.0 uM
[36] = molecular target: Serine/threonine-protein kinase PAK 6 (Homo sapiens) (UniProt Q9NQU5); conditions: Compound concentration 1.0 uM
[37] = molecular target: Myosin-IIIb (Homo sapiens) (UniProt Q8WXR4); conditions: Compound concentration 1.0 uM
[38] = molecular target: BDNF/NT-3 growth factors receptor (Homo sapiens) (UniProt Q16620); conditions: Compound concentration 1.0 uM
[39] = molecular target: AP2-associated protein kinase 1 (Homo sapiens, UniProt Q2M2I8); test: Dose response measurement (AAK1)
[40] = molecular target: Alpha-2C adrenergic receptor (Homo sapiens) (UniProt P18825); conditions: Compound concentration 10.0 uM
[41] = molecular target: Receptor-interacting serine/threonine-protein kinase 3 (Homo sapiens) (UniProt Q9Y572); conditions: Compound concentration 1.0 uM
[42] = molecular target: cAMP-dependent protein kinase catalytic subunit gamma (Homo sapiens) (UniProt P22612); test: PRKACG (PRKAC GAM Invitrogen Lab (UK) kinase screen (BI); conditions: Compound concentration 1.0 uM
Homo sapiens = species: Homo sapiens; test: PKBDPH (PKB delta PH) DUNDEE kinase screen (BI); conditions: Compound concentration 10.0 uM
[43] = molecular target: MAP kinase-interacting serine/threonine-protein kinase 1 (Homo sapiens) (UniProt Q9BUB5); test: MKNK1 Invitrogen Lab (UK) kinase screen (BI); conditions: Compound concentration 1.0 uM

Sequence of Ribosomal protein S6 kinase beta-1 (Homo sapiens) (P23443 whole entry, looked up): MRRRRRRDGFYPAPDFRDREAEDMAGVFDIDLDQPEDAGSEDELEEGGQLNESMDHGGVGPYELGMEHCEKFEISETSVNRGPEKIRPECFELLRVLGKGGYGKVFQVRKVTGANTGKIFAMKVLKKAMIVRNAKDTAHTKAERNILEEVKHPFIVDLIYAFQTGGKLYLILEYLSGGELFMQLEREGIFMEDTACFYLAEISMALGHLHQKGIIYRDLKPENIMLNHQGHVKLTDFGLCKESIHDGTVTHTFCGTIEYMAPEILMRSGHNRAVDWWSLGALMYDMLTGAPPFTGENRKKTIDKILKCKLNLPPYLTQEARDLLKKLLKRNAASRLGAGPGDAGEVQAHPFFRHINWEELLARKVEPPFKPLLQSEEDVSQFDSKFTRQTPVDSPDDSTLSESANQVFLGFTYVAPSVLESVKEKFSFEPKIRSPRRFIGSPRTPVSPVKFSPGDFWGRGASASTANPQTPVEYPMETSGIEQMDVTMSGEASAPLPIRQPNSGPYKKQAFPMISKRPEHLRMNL
Sequence of Inhibitor of nuclear factor kappa-B kinase subunit beta (Homo sapiens) (O14920 whole entry): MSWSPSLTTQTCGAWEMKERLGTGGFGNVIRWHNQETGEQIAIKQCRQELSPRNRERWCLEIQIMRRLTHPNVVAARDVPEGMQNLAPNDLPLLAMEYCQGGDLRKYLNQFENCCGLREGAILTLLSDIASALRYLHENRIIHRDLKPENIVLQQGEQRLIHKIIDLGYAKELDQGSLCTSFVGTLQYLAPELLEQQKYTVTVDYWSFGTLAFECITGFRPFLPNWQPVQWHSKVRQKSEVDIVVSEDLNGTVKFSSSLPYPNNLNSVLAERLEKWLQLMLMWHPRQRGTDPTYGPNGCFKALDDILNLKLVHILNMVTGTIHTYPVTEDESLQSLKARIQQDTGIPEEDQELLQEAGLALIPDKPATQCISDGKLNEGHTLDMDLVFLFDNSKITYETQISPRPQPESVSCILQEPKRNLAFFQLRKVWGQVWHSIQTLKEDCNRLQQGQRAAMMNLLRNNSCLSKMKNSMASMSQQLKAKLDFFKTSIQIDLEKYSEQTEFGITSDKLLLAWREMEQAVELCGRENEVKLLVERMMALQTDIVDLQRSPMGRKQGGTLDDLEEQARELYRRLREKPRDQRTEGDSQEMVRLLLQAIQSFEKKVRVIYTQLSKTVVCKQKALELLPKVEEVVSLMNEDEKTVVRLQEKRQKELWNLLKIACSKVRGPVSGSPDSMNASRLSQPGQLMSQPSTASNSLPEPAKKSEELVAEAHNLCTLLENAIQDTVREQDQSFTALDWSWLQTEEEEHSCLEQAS
Sequence of Eukaryotic elongation factor 2 kinase (Homo sapiens) (O00418 whole entry): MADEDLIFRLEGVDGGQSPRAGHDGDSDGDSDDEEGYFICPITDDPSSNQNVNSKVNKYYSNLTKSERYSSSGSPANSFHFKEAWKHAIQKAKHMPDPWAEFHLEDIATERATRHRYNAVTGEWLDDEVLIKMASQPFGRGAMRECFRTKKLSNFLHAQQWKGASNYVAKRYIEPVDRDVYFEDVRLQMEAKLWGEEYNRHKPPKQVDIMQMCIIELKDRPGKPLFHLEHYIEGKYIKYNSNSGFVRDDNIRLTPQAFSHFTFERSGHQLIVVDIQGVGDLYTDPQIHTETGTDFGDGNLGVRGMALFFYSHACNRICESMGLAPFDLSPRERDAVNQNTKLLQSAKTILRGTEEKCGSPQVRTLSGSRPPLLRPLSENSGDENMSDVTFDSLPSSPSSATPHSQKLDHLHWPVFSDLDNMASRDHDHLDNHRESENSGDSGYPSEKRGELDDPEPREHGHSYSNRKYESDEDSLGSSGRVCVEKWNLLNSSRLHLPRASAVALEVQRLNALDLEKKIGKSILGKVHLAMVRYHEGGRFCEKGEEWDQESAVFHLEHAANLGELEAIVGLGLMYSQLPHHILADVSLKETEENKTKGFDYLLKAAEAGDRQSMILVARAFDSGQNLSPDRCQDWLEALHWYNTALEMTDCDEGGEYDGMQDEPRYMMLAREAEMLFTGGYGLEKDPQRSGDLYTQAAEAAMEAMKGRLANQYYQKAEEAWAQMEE
Sequence of Tyrosine-protein kinase receptor UFO (Homo sapiens) (P30530 whole entry): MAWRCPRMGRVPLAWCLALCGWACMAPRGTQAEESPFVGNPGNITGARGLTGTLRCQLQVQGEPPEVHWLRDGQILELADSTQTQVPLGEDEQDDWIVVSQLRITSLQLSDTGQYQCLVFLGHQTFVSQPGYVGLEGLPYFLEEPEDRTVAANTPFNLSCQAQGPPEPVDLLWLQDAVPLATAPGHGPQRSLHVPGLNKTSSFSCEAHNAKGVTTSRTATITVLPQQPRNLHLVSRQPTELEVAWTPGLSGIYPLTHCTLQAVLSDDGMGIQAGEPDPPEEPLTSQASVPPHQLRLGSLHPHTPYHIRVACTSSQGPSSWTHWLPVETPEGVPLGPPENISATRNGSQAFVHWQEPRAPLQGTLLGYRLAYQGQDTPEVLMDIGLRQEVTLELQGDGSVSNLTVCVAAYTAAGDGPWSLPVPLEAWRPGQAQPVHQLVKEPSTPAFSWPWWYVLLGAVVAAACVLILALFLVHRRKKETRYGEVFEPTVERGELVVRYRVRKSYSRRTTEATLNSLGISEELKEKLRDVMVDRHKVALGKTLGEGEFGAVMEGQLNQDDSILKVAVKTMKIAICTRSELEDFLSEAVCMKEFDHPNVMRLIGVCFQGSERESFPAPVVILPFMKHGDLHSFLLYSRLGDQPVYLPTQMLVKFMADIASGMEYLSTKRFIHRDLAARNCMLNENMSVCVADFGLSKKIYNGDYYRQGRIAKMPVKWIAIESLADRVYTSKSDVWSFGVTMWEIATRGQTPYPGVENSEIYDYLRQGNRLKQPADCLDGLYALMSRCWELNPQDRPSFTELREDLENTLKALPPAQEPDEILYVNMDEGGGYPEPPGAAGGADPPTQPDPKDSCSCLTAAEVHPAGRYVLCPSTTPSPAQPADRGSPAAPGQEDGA
Sequence of RAC-alpha serine/threonine-protein kinase (Homo sapiens) (P31749 whole entry): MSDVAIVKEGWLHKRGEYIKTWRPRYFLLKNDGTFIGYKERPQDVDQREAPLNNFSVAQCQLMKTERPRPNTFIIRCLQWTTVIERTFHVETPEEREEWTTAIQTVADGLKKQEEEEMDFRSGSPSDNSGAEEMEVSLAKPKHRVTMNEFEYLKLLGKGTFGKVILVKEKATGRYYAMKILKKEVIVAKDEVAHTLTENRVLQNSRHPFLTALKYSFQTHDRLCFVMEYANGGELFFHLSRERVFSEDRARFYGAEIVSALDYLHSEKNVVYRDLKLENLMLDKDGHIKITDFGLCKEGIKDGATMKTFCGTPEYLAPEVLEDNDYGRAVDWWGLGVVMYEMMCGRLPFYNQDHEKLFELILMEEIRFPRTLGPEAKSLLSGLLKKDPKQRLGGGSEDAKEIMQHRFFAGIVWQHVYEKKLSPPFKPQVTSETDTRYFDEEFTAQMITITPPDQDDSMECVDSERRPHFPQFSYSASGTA
Sequence of MAP kinase-interacting serine/threonine-protein kinase 1 (Homo sapiens) (Q9BUB5 whole entry, looked up): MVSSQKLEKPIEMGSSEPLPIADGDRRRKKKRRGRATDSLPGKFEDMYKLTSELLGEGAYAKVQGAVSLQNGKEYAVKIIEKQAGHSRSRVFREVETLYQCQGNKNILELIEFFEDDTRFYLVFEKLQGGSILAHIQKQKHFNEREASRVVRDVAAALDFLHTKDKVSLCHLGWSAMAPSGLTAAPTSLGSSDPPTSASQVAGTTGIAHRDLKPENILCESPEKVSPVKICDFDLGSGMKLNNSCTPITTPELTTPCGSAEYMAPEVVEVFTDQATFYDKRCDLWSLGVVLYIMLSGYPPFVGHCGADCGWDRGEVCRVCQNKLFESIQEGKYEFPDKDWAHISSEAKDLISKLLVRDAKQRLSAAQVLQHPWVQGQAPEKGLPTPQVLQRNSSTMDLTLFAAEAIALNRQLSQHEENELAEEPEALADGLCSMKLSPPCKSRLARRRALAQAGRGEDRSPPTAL
Sequence of G protein-coupled receptor kinase 6 (Homo sapiens) (P43250 whole entry, looked up): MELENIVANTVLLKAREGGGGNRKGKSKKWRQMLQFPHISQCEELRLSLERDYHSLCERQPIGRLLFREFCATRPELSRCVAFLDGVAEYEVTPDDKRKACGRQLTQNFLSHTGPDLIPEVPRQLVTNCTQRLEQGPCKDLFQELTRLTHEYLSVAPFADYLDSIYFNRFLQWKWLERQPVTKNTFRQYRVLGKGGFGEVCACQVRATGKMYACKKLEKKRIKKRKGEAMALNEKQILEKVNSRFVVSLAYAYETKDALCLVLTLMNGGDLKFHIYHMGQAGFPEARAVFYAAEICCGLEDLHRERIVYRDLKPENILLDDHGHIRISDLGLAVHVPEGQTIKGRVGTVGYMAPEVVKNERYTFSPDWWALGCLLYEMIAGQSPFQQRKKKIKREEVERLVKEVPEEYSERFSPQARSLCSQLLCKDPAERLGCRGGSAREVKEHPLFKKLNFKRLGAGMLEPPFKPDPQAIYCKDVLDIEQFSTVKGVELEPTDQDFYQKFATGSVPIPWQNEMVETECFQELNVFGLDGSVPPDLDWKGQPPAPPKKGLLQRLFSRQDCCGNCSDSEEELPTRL
Sequence of Leukotriene C4 synthase (Cavia porcellus) (A6XA80 whole entry): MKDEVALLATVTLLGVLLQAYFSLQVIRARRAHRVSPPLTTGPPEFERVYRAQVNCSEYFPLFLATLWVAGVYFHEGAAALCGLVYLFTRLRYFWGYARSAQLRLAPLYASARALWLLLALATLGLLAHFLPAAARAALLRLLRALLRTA
Sequence of Serine/threonine-protein kinase 17A (Homo sapiens) (Q9UEE5 whole entry): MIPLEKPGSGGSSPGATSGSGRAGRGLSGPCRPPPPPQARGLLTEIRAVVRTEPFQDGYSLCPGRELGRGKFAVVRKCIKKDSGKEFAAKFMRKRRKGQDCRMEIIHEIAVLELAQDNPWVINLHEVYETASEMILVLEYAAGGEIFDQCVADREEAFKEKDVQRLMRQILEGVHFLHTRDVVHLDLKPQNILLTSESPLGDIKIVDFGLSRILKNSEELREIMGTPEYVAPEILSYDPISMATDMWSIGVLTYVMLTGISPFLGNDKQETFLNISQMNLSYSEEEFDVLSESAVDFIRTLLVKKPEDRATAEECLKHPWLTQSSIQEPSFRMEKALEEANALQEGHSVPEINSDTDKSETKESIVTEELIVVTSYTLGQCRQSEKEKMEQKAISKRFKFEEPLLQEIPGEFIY

CCC(F)(F)c1cc(N2CCC(S(C)(=O)=O)CC2)nc2sc(C(N)=O)c(N)c12 [BI-605906]
6.57: pIC50 [39]
active: residual activity ([7]; Compound concentration 1.0 uM) 13.5% | residual activity ([7]; Compound concentration 10.0 uM) -1.5%
inactive: inhibition [1] -1.66% | residual activity [2] 73.3% | residual activity [3] 80% | residual activity ([4]; Compound concentration 1.0 uM) 98% | residual activity ([4]; Compound concentration 10.0 uM) 85% | residual activity [5] 99% | residual activity [6] 68% | residual activity [8] 86.8% | residual activity [9] 97% | residual activity [10] 93% | residual activity ([11]; Compound concentration 1.0 uM) 99% | residual activity ([11]; Compound concentration 10.0 uM) 96% | residual activity [12] 91% | residual activity [13] 98% | residual activity [14] 92% | residual activity [15] 96% | residual activity ([16]; Compound concentration 1.0 uM) 94% | residual activity ([16]; Compound concentration 10.0 uM) 66% | residual activity [17] 95% | residual activity [18] 98% | residual activity [19] 93% | residual activity [20] 99% | residual activity [21] 66.2% | residual activity [22] 93.8% | residual activity [23] 99% | residual activity [24] 78% | residual activity [25] 103% | residual activity [26] 93% | residual activity [27] 102% | residual activity [28] 112% | residual activity [29] 88% | inhibition [30] 6.1% | residual activity [31] 90% | residual activity [32] 102% | residual activity [33] 93% | residual activity [34] 101% | residual activity [35] 103% | residual activity [36] 105% | residual activity [37] 90% | residual activity [38] 95% | inhibition [40] 13.7% | residual activity [41] 100% | residual activity [42] 103% | residual activity (Homo sapiens) 75.6% | residual activity [43] 107%

Source: ChEMBL document CHEMBL4800722, “Data for DCP probe BI 605906” (2021)
